Test results published in patent publication US12129267B2, “Heteroaryl amide compounds as sting activators” (Incyte Corporation, priority 2019, dated 2024).
pEC50: −log10 of the molar value.

Tested on: IRF3
Experiment: IRF3 activation assay in THP-1 Dual Cells
Format: cell-based
Conditions: Homo sapiens, THP1-Dual, 24 hours incubation, QUANTI-Blue readout
Experimental: THP-1 Dual Cells (Invivogen) were maintained in RPMI1640 medium with addition of 10% FBS, 100 μg/mL zeocin, 10 μg/mL blasticidin. Cells were added in a 96-well flat bottom assay plate at 100,000 per well in 100 μL complete RPMI medium. Test compounds were prepared by serial dilution in complete RPMI medium and 100 μL test compounds were transferred to each corresponding well. The assay plate was incubated at 37° C., 5% CO2 for 24 hours. After the overnight incubation, 20 μL of the culture supernatants were collected, followed by addition of 180 μL of QUANTI-Blue (Invivogen) to assess IRF3 activity. The amount of IRF3 activation was assessed by reading the absorbance at 620-655 nm with a microplate reader 2 hours later. The culture supernatant from the untreated THP-1 cells was used as the negative control. To determine the NF-κB activation, another 20 μL of culture supernatant were transferred to a 96-well white plate, followed by addition of 50 μL of Quanti-Luc™ assay solution (Invivogen). The amount of NF-κB activation induced by the test compounds were determined by the luminescence above the untreated control. EC50 determination was performed by fitting the curve of percent control activity versus the log of the compound concentration using the GraphPad Prism 6.0 software.

| pEC50 | Compound |
| --- | --- |
| > 7.00 | CCn1nc(C)cc1C(=O)Nc1nc2cc(C(N)=O)c3ccoc3c2n1C/C=C/Cn1c2nc(-c3cc(C)nn3CC)ncc2c2cc(C(N)=O)cc(OC)c21 [Example 1, (E)-1-(4-(6-carbamoyl-2-(1-ethyl-3-methyl-1H-pyrazol-5-yl)-8-methoxy-9H-pyrimido[4,5-b]indol-9-yl)but-2-en-1-yl)-2-(1-ethyl-3-methyl-1H-pyrazole-5-carboxamido)-1H-benzofuro[6,7-d]imidazole-5-carboxamide] |
| > 7.00 | CCn1nc(C)cc1C(=O)Nc1nc2cc(C(N)=O)c3ccoc3c2n1C/C=C/Cn1c2nc(-c3cc(C)nn3CC)ncc2c2cc(C(N)=O)cc(OCCCOC)c21 [Example 2, (E)-1-(4-(6-carbamoyl-2-(1-ethyl-3-methyl-1H-pyrazol-5-yl)-8-(3-methoxypropoxy)-9H-pyrimido[4,5-b]indol-9-yl)but-2-en-1-yl)-2-(1-ethyl-3-methyl-1H-pyrazole-5-carboxamido)-1H-benzofuro[6,7-d]imidazole-5-carboxamide] |
| > 7.00 | CCn1nc(C)cc1C(=O)Nc1nc2cc(C(N)=O)c3ccoc3c2n1C/C=C/Cn1c2nc(-c3cc(C)nn3CC)ncc2c2cc(C(N)=O)cc(OCCCO)c21 [Example 3, (E)-1-(4-(6-carbamoyl-2-(1-ethyl-3-methyl-1H-pyrazol-5-yl)-8-(3-hydroxypropoxy)-9H-pyrimido[4,5-b]indol-9-yl)but-2-en-1-yl)-2-(1-ethyl-3-methyl-1H-pyrazole-5-carboxamido)-1H-benzofuro[6,7-d]imidazole-5-carboxamide] |
